The structures appear in SMILES notation. pIC50: −log10 of the molar value. Converted amounts (≈) assume the structure as drawn. Bounds are passed on as bounds.

For data set [1], the system named is Escherichia coli. As to the kind of experiment: Minimum inhibition concentration against Escherichia coli NIHJ JC-2 strain. In kind it is functional.
Data set [2] has as its system Enterococcus faecalis. As to the kind of experiment: Minimum inhibition concentration against Enterococcus faecalis LS-101 strain. In kind it is functional.
The target in data set [3] is GABA-A receptor; anion channel. As to the kind of experiment: Inhibition of [3H]muscimol binding to GABA A receptor with 10 e-4 M 4-biphenylacetic acid. In kind it is protein-complex assay.
The target of data set [4] is T1, GABA-A receptor; anion channel (Homo sapiens) (UniProt P14867+P47870+P18507+P28472+P48169+Q99928+Q9UN88+P34903+O00591+O14764+Q8N1C3+P18505+P78334+P47869+P31644+Q16445). Put plainly: Percentage of GABA-induced chloride currents with 10 e-5 M 4-biphenylacetic acid. Particulars: Bull Frog. In kind it is functional.
The target of data set [5] is T1, GABA-A receptor; anion channel (Homo sapiens). Put plainly: Percentage of GABA-induced chloride currents with 10e-4 M 4-biphenylacetic acid. In kind it is functional. The following applies: Bull Frog.
The target is the same in data set [6]. Put plainly: Percentage of GABA-induced chloride currents with compound alone at 10 e-4 M. In kind it is functional. Particulars: Bull Frog.
Data set [7] deals with Mus musculus. As to the kind of experiment: Percentage of mice with convulsion (400 mg/kg fenbufen). In kind it is functional.
For data set [8], the system named is Mus musculus. Put plainly: Percentage of mice with convulsion with compound alone at 400 mg/kg. In kind it is functional.
The subject of data set [9] is Pseudomonas aeruginosa. As to the kind of experiment: Minimum inhibition concentration against Pseudomonas aeruginosa U-31 strain. In kind it is functional.
Data set [10] deals with Staphylococcus aureus. Put plainly: Minimum inhibition concentration against Staphylococcus aureus FDA209P strain. In kind it is functional.
Data set [11] deals with Streptococcus pneumoniae. As to the kind of experiment: Minimum inhibition concentration against Streptococcus pneumoniae Type I strain. In kind it is functional.
For data set [12], the system named is Staphylococcus aureus. As to the kind of experiment: Minimum inhibition concentration against Staphylococcus aureus MRSA strain. In kind it is functional.
Data set [13] concerns the target GABA-A receptor; anion channel. Put plainly: Inhibition of [3H]muscimol binding to GABA A receptor with compound alone at 10 e-4 M. In kind it is protein-complex assay.
The nature of data set [14]: The compound was evaluated for the solubility in water at 25 degrees Centigrade. In kind it is ADME.
In data set [15] the test system is Escherichia coli. As to the kind of experiment: Minimum inhibitory concentration against Escherichia coli KC14 strain. In kind it is functional.
In data set [16] the target is GABA-A receptor; anion channel. Put plainly: Inhibition of [3H]muscimol binding to GABA A receptor 4-biphenylacetic acid at 10 e-4 M. In kind it is protein-complex assay. The following applies: read-out: IC50.
The target in data set [17] is T1, GABA-A receptor; anion channel (Homo sapiens). As to the kind of experiment: Percentage of GABA-induced chloride currents, compound with 10E-4 M 4-biphenylacetic acid. Particulars: Bull Frog. In kind it is functional.
For data set [18], the system named is Escherichia coli. As to the kind of experiment: Effective dose against Escherichia coli KC14 strain in mouse. In kind it is functional.
The test system of data set [19] is Staphylococcus aureus. As to the kind of experiment: Effective dose against Staphylococcus aureus smith strain in mouse. In kind it is functional.
For data set [20], the system named is Staphylococcus aureus. Put plainly: Minimum inhibitory concentration against Staphylococcus aureus Smith. In kind it is functional.

One may read the MIC as the lowest concentration that inhibits growth of the organism. The low end stands for greater potency, the high end for weaker potency. What is called pIC50 is the IC50 on a negative log10 scale, so that one unit is a factor of ten. Take `CCn1cc(C(=O)O)c(=O)c2cc(F)c(N3CCOCC3)cc21`: the minimum inhibitory concentration (MIC) amounted to 0.78 µg/mL (≈ 2.44 µM) in data set [1]; 3.13 µg/mL (≈ 9.77 µM) in data set [2]; 3.13 µg/mL (≈ 9.77 µM) in [9]; 0.2 µg/mL (≈ 0.624 µM) in data set [10]; 12.5 µg/mL (≈ 39 µM) in data set [11]; 0.39 µg/mL (≈ 1.22 µM) in data set [12]. Also, the pIC50 in [3] and in data set [13] was < 4.00 each time. Moreover, the Currents stood at 100% in [4], 92% in data set [5] and 100% in data set [6]. The Convulsion in data set [7] and in data set [8] was 0% each time.

As a reminder, the solubility is the concentration that dissolves in the medium under given conditions. Low values mean a poorly soluble substance, high ones a readily soluble substance. Take `O=C(O)c1cn(C2CC2)c2c(F)c(N3CCOCC3)c(F)cc2c1=O`: the concentration in solution in data set [14] (solubility) came to 9 µg/mL (≈ 25.7 µM). For the same compound, the MIC in data set [1] was 0.1 µg/mL (≈ 0.285 µM); in data set [15], 0.1 µg/mL (≈ 0.285 µM); in data set [2], 0.78 µg/mL (≈ 2.23 µM); in data set [9] it was 0.78 µg/mL (≈ 2.23 µM); in [10], 0.025 µg/mL (≈ 0.0714 µM); in data set [20], 0.05 µg/mL (≈ 0.143 µM). Besides, the figures for the MIC in data set [11] and in data set [12] were 0.39 µg/mL (≈ 1.11 µM) and 0.05 µg/mL (≈ 0.143 µM), respectively. Also, the pIC50 in [16] and in [13] was < 4.00 in each case. For the same compound, the Currents came to 91% in data set [4], 91% in [6] and 71% in data set [17]. Besides, the Convulsion in data set [7] and in [8] was 0% in each case. The figures for the ED50 in data set [18] and in data set [19] were 0.056 mg mouse-1 and 1.304 mg mouse-1, respectively.

On to `O=C(O)c1cn(C2CC2)c2cc(N3CCOCC3)c(F)cc2c1=O`, for which the MIC stood at 0.2 µg/mL (≈ 0.602 µM) in [1]; 0.78 µg/mL (≈ 2.35 µM) in data set [2]; 1.56 µg/mL (≈ 4.69 µM) in data set [9]; 0.05 µg/mL (≈ 0.15 µM) in data set [10]; 3.13 µg/mL (≈ 9.42 µM) in data set [11]; 0.1 µg/mL (≈ 0.301 µM) in data set [12]. Besides, the negative logarithm of the IC50 (pIC50) in [3] and in data set [13] was < 4.00 throughout. Besides, the Currents in [4] came to 99%; in data set [5], 91%; in data set [6], 100%. Besides, the Convulsion in data set [7] and in [8] was 0% each time.

Regarding `CCn1cc(C(=O)O)c(=O)c2cc(F)c(N3CCNCC3)cc21` [NORFLOXACIN], the solubility in [14] was found to be 290 µg/mL (≈ 908 µM). For the same compound, the MIC in data set [1] is 0.1 µg/mL (≈ 0.313 µM); in [15], 0.05 µg/mL (≈ 0.157 µM); in data set [2] it was 0.78 µg/mL (≈ 2.44 µM); in data set [9] it was 0.39 µg/mL (≈ 1.22 µM); in data set [10] it was 0.39 µg/mL (≈ 1.22 µM); in data set [20] it was 0.2 µg/mL (≈ 0.626 µM). Moreover, the minimum inhibitory concentration (MIC) turned out to be 3.13 µg/mL (≈ 9.8 µM) in data set [11] and 12.5 µg/mL (≈ 39.1 µM) in data set [12]. In addition, the negative-log IC50 (pIC50) is 7.70 in data set [16] and 4.89 in data set [13]. Further, the Currents stood at 0% in data set [4] and 38% in [6]. Besides, the values for the Convulsion in data set [7] and in data set [8] were 100% and 0%, respectively. Further, the ED50 in [18] is listed as 0.054 mg mouse-1; in data set [19], 1 mg mouse-1.

(Values after ChEMBL document CHEMBL1126682, “Quinolone antimicrobial agents substituted with morpholines at the 7-position. Syntheses and structure-activity relationships” (J Med Chem, 1993).)
